Patent publication US20070049626A1, “Treating premature ejaculation using gabapentin and pregabalin prodrugs” (priority 2005, published 2007)

Experiments:
[1] = test system: PCA-induced ejaculation in anaesthetized rats; assay: p-chloroamphetamine (PCA)-induced ejaculation in anaesthetized rats; type: in vivo, rat; settings: for effect on PCA-induced ejaculation: 1, 3, 10 or 30 mg/kg po, 60 min prior to PCA; for quality of erection: PCA model; for ejaculatory latency: doses above 3 mg/kg po, excipient-only about 300 s
Protocol: (§1) For all the sexual behavior tests, the rapid ejaculating Sprague Dawley rats, weighing 350-450 g, are used as an animal model of premature ejaculation (classified as ejaculatory latency <300 s during baseline assessment). Prior to the experiments the animals are housed in groups (2 rats per cage) under controlled 12 h light-dark cycle (lights on at 07:00), constant temperature (23±1° C.), and humidity (55±5%). The animals are given free access to standard food pellets and water.
The compounds are dosed orally by taking the tablets of Examples 1 and 2, finely crushing them and suspending the resulting powder in an aqueous vehicle for oral administration to rats by gavage. Compounds (100) and (101) are tested at 1, 3, 10 or 30 mg/kg po, 60 min prior to PCA administration. Compounds (100) and (101) each dose-dependently increases ejaculatory latency by up to 250%. As a baseline comparison, some of the rats are given a placebo formulation similar to Examples 1 and 2, but containing no prodrug.

[2] = test system: rapid ejaculating Sprague Dawley rats; assay: Copulatory behavior in rapid ejaculating conscious rats (model of premature ejaculation); type: in vivo, rat; settings: rapidly-ejaculating conscious rats; for other effects on copulatory behavior: 10 mg/kg oral; for increase of ejaculatory latency / ejaculatory latency (time to ejaculate): 10 mg/kg, 60 min post oral dosing; for increase of ejaculatory latency: P<0.01; for ejaculatory latency (time to ejaculate): excipient-only about 140 s
Protocol: as §1
The rats are placed in an observation arena (50-60 cm diameter), starting 5 hours into the dark cycle and observed under red illumination. Three to four minutes after placing the male in the arena, a receptive female (ovariectomised, oestradiol benzoate/progesterone injection 48 hour before behavioral study) is introduced into the arena and the following parameters are noted: (i) ejaculatory latency (EJL; time taken from addition of receptive female into the arena to ejaculation); (ii) copulatory efficiency (CE; ejaculatory latency/the number of intromissions to ejaculation, i.e., the number of seconds between intromissions); (iii) intromission frequency (IF; the number of intromissions to ejaculation); (iv) mount frequency (MF; the number of mounts to ejaculation); (v) post ejaculatory interval (PEI; the time taken from ejaculation to the commencement of copulatory behavior).
Rodent copulatory behavior is characterized by a series of mounts, with and without vaginal insertion (50-80% of mounts result in intromission (vaginal penetration)) and ejaculation occurs after 6 to 12 intromissions. Each intromission lasts a matter of seconds—it is not possible to quantify intromission length i.e., intravaginal latency. The effect of compounds (100) and (101) is assessed on a number of copulatory parameters (see above). We are focusing on ejaculatory latency as an objective clinical outcome measure of time taken to achieve ejaculation. The study is performed in rapid ejaculating rats as a model of premature ejaculation (rats characterized by ejaculatory latency <300 s at baseline). Compound (100) and (101) increases ejaculatory latency by 58% in rapidly-ejaculating conscious rats (P<0.01), i.e., compound (100) and (101) (each to be dosed at 10 mg/kg, 60 min post oral dosing)-treated animals take about 200 s to ejaculate compared to about 140 s in excipient-only treated animals.

[3] = Tmax after oral administration of immediate release formulation; type: in vivo; settings: human, blood, following oral administration
Description: The compounds disclosed herein, for example, the gabapentin prodrug 1-{[(α-isobutanoyloxyethoxy)carbonyl]aminomethyl}-1-cyclohexane acetic acid, is more efficacious than the parent drug molecule (i.e., gabapentin) in treating premature ejaculation because the disclosed compounds require less time to reach a therapeutic concentration in the blood, i.e., the compounds disclosed herein have a shorter Tmax than their gabapentin or pregabalin “counterparts” when taken orally. […] This provides an advantage over the parent drugs (i.e., gabapentin and pregabalin) in that the patient need not wait as long after administering the prodrugs before a therapeutic concentration of the active parent drug in the blood is reached. Thus, the prodrugs disclosed herein allow the patient to dose shortly before sexual activity, allowing sexual activity to occur with more spontaneity, compared to dosing of either gabapentin or pregabalin.

| SMILES | effect on PCA-induced ejaculation [1] | quality of erection [1] | ejaculatory latency [1] | other effects on copulatory behavior [2] | increase of ejaculatory latency [2] [%] | ejaculatory latency (time to ejaculate) [2] | Tmax [3] [h] |
| --- | --- | --- | --- | --- | --- | --- | --- |
| CC(OC(=O)NCC1(CC(=O)O)CCCCC1)OC(=O)C(C)C (stereo not drawn) [Compound (100), 1-{[(α-Isobutanoyloxyethoxy)carbonyl]aminomethyl}-1-Cyclohexane Acetic Acid] | significantly delays | not influenced | about 1000 s | no other significant effects | 58 | about 200 s |  |
| CC(C)CC(CNC(=O)OC(C)OC(=O)C(C)C)CC(=O)O (stereo not drawn) [Compound (101), 3-{[(α-Isobutanoyloxyethoxy)carbonyl]aminomethyl}-5-methyl Hexanoic Acid] | significantly delays | not influenced | about 1000 s | no other significant effects | 58 | about 200 s |  |
| NCC1(CC(=O)O)CCCCC1 [gabapentin] |  |  |  |  |  |  | 2.8 to 3.3 |
